{
  "source": "patent US20240245677A1",
  "about": "“SELECTED COMPOUNDS FOR TARGETED DEGRADATION OF BRD9” (C4 THERAPEUTICS, INC., priority 2021, published 2024)",
  "key": {"[1]": {"assay": "Salt and cocrystal evaluation (equilibration, cooling, slow evaporation, anti-solvent, re-equilibration)", "type": "physicochemical", "description": "Compound 1 was investigated with a variety of salts to find additional morphic forms and cocrystals. This salt and cocrystal investigation for Compound 1 was performed with free form Pattern A*. This is a hydrate with medium crystallinity. […] Acetone, methanol, ethyl acetate and acetonitrile were used as evaluation solvents. Five crystallization methods, including equilibration, fast cooling, slow evaporation, addition of anti-solvent and re-equilibration, were applied to obtain salt or cocrystal hits. From these investigations only one crystalline form—a urea cocrystal Form P was identified.\nBased on the pKa of free form, 14 acids were selected for evaluation in acetone and methanol. About 30 mg of Compound 1 free form and 1 or 2 equivalents of salt forming agents 5 were weighed into 2 mL glass vials. 200 μL of acetone or methanol was added. […] To avoid degradation, experiments with strong acids were conducted without heating. Samples were stirred at 25° C. for 2 days. Obtained suspensions were taken out and centrifuged. Then wet cakes were dried at 25° C. under vacuum for 2 h. Obtained solids were analyzed by XRPD and results were summarized.\nTo obtain crystalline salts, another two solvents including ethyl acetate and acetonitrile were added as solvents. About 30 mg of Compound 1 free form and 1 or 2 equivalents of salt forming agents were weighed into 2 mL glass vials. 400 μL of ethyl acetate or 300 μL of acetonitrile was added. Samples were stirred at 25° C. for 2 days. Obtained solids were analyzed by XRPD and results were summarized.\nNicotinamide and urea were selected as crystallization agents for cocrystal evaluation. Acetone, methanol, ethyl acetate and acetonitrile were used as solvents. About 30 mg of Compound 1 free form, and 1 equivalent of crystallization agent were weighed into 2 mL glass vials. […] of acetone, 200 μL of methanol, […] of ethyl acetate or 300 µL of acetonitrile was added. Obtained suspensions were stirred at 25° C. for 2 days. Obtained solids were analyzed by XRPD and results were summarized.\nSupernatants obtained from equilibration experiments were cooled to 5° C. and stirred at 5° C. for 3 days. Then obtained suspensions were centrifuged at 5° C. and solids were dried under vacuum at 25° C. for 2 h. No crystalline salt was obtained.\nNo crystalline hits were obtained.\nAmorphous salts from above experiments were re-equilibrated at 25° C. for crystallization. No crystalline salt hits were obtained."}, "[2]": {"system": "cryopreserved hepatocytes from beagle dogs", "assay": "Dog Hepatocyte Stability Assay", "type": "in vitro ADME", "description": "(§1) The metabolic stability of Compound 1 was evaluated using cryopreserved hepatocytes from mice, rats, dogs, cynomolgus monkeys, and humans.\n(§2) 50 μL of 1 mM intermediate solutions for each test compound was prepared by adding 5 μL of 10 mM stock solution to 45 μL of a 1:1 mixture of water and acetonitrile. A 2 μM working stocks for each test compound were prepared in incubation media, InvitroGRO™ KHB (Bio IVT, Westbury, NY, USA), by adding 2 μL of 1 mM intermediate stock to 998 μL of incubation media.\n(§3) To thaw the hepatocytes, InvitroGRO™ HT thawing medium (BioIVT, Westbury, NY, USA) was prewarmed to 37° C., and 48 mL of warmed thawing medium was transferred to a sterile 50 mL conical tube. The hepatocyte vial was removed from the liquid nitrogen Dewar, and gently thawed in a water bath at 37° C. for 1-2 minutes, then the contents of the vial were emptied into a conical tube with prewarmed InvitroGRO HT medium. 1 mL of prewarmed InvitroGRO HT medium was added to each emptied hepatocyte vial to resuspend any remaining cells, and the contents were pipetted into the hepatocyte suspension. The tube containing the hepatocyte suspension was centrifuged at 50*g for 5 minutes. The supernatant was removed carefully, and the remaining pellet was resuspended by adding 1 mL of incubation media, InvitroGRO KHB, and gently shaking until there were no clumps.\n(§4) Cell viability was determined using the trypan blue method. 25 μL of hepatocyte cell suspension was added to a trypan blue (TB) solution (containing 775 μL InvitroGRO KHB and 200 μL of Trypan Blue). Cell count was taken using a hemacytometer.\n(§5) For mouse hepatocytes, 200 μL of hepatocytes (0.8×10^6 cells/mL) were added to the wells of a 48 well plate (Catalog No. 92048, TPP Techno Plastic Products AG, Trasadingen, Switzerland) and pre-incubated for 30 minutes at 37° C. For rat, dog, monkey, […], 200 μL of hepatocytes (2×10^6 cells/mL) were added to the wells of a 48 well plate (Catalog No. 92048, TPP Techno Plastic Products AG, Trasadingen, Switzerland) and pre-incubated for 30 minutes at 37° C.\n(§6) For all species of hepatocytes, once the pre-incubation period was complete, 200 μL of 2 μM working stock of test compound was added to the wells of the plate, and the plate was vortexed on a Vibramax™ 100 (P/N 544-21200-00, Heidolph Instruments GmbH & Co. KG, Schwabach, Germany) at 500 rpm in a 37° C. CO2 incubator (Model No. 51026280, ThermoFisher Scientific, Waltham, MA, USA). At each time point of 0, 15, 30, 60, 90, and 120 minutes, 50 μL of incubation mixture was precipitated with 200 μL of acetonitrile containing internal standard.\n(§7) At the end of the experiment, the samples were centrifuged at 4000 rpm for 10 minutes. […]"}, "[3]": {"assay": "Dog Hepatocyte Stability Assay", "type": "in vitro ADME", "details": "beagle, cryopreserved hepatocytes", "description": "as §1, §2, §3, §4, §5, §6, §7"}},
  "data": [
    {"smiles": "COc1cc(-c2cn(C)c(=O)c(C)c2C)cc(OC)c1CN1CC[C@H](N2CCN(c3ccc(N[C@H]4CCC(=O)NC4=O)cc3F)CC2)C(F)(F)C1", "note": "[Compound 1, (S)-3-((4-(4-((S)-1-(2,6-dimethoxy-4-(1,4,5-trimethyl-6-oxo-1,6-dihydropyridin-3-yl)benzyl)-3,3-difluoropiperidin-4-yl)piperazin-1-yl)-3-fluorophenyl)amino)-piperidine-2,6-dione]", "values": [
      {"measurement": "Results (re-equilibration for 8 days) Acetone", "setting": "[1]; 1.05 equiv. Sulfuric acid, Acetone, +200 μL EA", "result": "Free form Pattern B*"},
      {"measurement": "Results (re-equilibration for 8 days) Acetone", "setting": "[1]; 2.10 equiv. Hydrochloric acid, Acetone, +100 μL ACN", "result": "+100 μL ACN, Gel-like sample"},
      {"measurement": "Results (re-equilibration for 8 days) Acetone", "setting": "[1]; 2.10 equiv. Methanesulfonic acid, Acetone, +200 μL EA", "result": "+200 μL EA, Gel-like sample"},
      {"measurement": "Results (anti-solvent addition) A Acetone", "setting": "[1]; 2.10 equiv. Trifluoroacetic acid, Acetone, +400 μL MTBE", "result": "Clear solution"},
      {"measurement": "Results (anti-solvent addition) C EA, XRPD", "setting": "[1]; 2.10 equiv. Trifluoroacetic acid, EA, +200 μL MTBE, suspension, AF = Amorphous form", "result": "XRPD: AF*"},
      {"measurement": "Results (cooling) A Acetone", "setting": "[1]; cooled to 5° C., 3 days, 1.05 equiv. Fumaric acid, Acetone", "result": "Clear Solution"},
      {"measurement": "Results (cooling) A Acetone", "setting": "[1]; cooled to 5° C., 3 days, 1.05 equiv. Sulfuric acid, Acetone", "result": "Clear Solution"},
      {"measurement": "Results (cooling) B MeOH", "setting": "[1]; cooled to 5° C., 3 days, 1.05 equiv. Sulfuric acid", "result": "Clear Solution"},
      {"measurement": "Results (cooling) B MeOH", "setting": "[1]; cooled to 5° C., 3 days, 2.10 equiv. Citric acid", "result": "Clear Solution"},
      {"measurement": "Results (cooling) A Acetone", "setting": "[1]; cooled to 5° C., 3 days, 2.10 equiv. Fumaric acid, Acetone", "result": "Clear Solution"},
      {"measurement": "Results (cooling) A Acetone", "setting": "[1]; cooled to 5° C., 3 days, 2.10 equiv. Hydrochloric acid, Acetone", "result": "Clear Solution"},
      {"measurement": "Results (cooling) B MeOH", "setting": "[1]; cooled to 5° C., 3 days, 2.10 equiv. Hydrochloric acid", "result": "Clear Solution"},
      {"measurement": "Results (cooling) A Acetone", "setting": "[1]; cooled to 5° C., 3 days, 2.10 equiv. L-Malic acid, Acetone", "result": "Clear Solution"},
      {"measurement": "Results (cooling) B MeOH", "setting": "[1]; cooled to 5° C., 3 days, 2.10 equiv. Maleic acid", "result": "Clear Solution"},
      {"measurement": "Results (cooling) B MeOH", "setting": "[1]; cooled to 5° C., 3 days, 2.10 equiv. Methanesulfonic acid", "result": "Clear Solution"},
      {"measurement": "Results (cooling) A Acetone", "setting": "[1]; cooled to 5° C., 3 days, 2.10 equiv. Succinic acid, Acetone", "result": "Clear Solution"},
      {"measurement": "Results (cooling) A Acetone", "setting": "[1]; cooled to 5° C., 3 days, 2.10 equiv. Sulfuric acid, Acetone", "result": "Clear Solution"},
      {"measurement": "Results (cooling) B MeOH", "setting": "[1]; cooled to 5° C., 3 days, 2.10 equiv. Sulfuric acid", "result": "Clear Solution"},
      {"measurement": "Results (cooling) D ACN", "setting": "[1]; cooled to 5° C., 3 days, 2.10 equiv. Trifluoroacetic acid, ACN", "result": "Clear Solution"},
      {"measurement": "Results (cooling) A Acetone", "setting": "[1]; cooled to 5° C., 3 days, 2.10 equiv. Trifluoroacetic acid, Acetone", "result": "Clear Solution"},
      {"measurement": "Results (cooling) C EA", "setting": "[1]; cooled to 5° C., 3 days, 2.10 equiv. Trifluoroacetic acid, EA", "result": "Clear Solution"},
      {"measurement": "Results (cooling) B MeOH", "setting": "[1]; cooled to 5° C., 3 days, 2.10 equiv. Trifluoroacetic acid", "result": "Clear Solution"},
      {"measurement": "Results (cooling) B MeOH", "setting": "[1]; cooled to 5° C., 3 days, 2.10 equiv. p-Toluenesulfonic acid", "result": "Clear Solution"},
      {"measurement": "Results A Acetone", "setting": "[1]; equilibration, 1.05 equiv. Fumaric acid, Acetone", "result": "Clear solution"},
      {"measurement": "Results A Acetone", "setting": "[1]; equilibration, 1.05 equiv. Nicotinamide, Acetone", "result": "Clear solution"},
      {"measurement": "Results A Acetone", "setting": "[1]; equilibration, 1.05 equiv. Urea, Acetone", "result": "Clear solution"},
      {"measurement": "Results A Acetone", "setting": "[1]; equilibration, 2.10 equiv. Adipic acid, Acetone", "result": "Clear solution"},
      {"measurement": "Results A Acetone", "setting": "[1]; equilibration, 2.10 equiv. Fumaric acid, Acetone", "result": "Clear solution"},
      {"measurement": "Results A Acetone", "setting": "[1]; equilibration, 2.10 equiv. L-Malic acid, Acetone", "result": "Clear solution"},
      {"measurement": "Results C EA", "setting": "[1]; equilibration, 2.10 equiv. Methanesulfonic acid, EA, AF = Amorphous form", "result": "AF MSA salt*"},
      {"measurement": "Results A Acetone", "setting": "[1]; equilibration, 2.10 equiv. Succinic acid, Acetone", "result": "Clear solution"},
      {"measurement": "Results D ACN", "setting": "[1]; equilibration, 2.10 equiv. Trifluoroacetic acid, ACN", "result": "Clear solution"},
      {"measurement": "Results A Acetone", "setting": "[1]; equilibration, 2.10 equiv. Trifluoroacetic acid, Acetone", "result": "Clear solution"},
      {"measurement": "Results C EA", "setting": "[1]; equilibration, 2.10 equiv. Trifluoroacetic acid, EA", "result": "Clear solution"},
      {"measurement": "CLh int in vivo", "setting": "[2]", "result": 11.48, "unit": "mL/min/Kg body wt."},
      {"measurement": "CLhb scaled well stirred", "setting": "[2]", "result": 8.6, "unit": "mL/min/kg body wt."},
      {"measurement": "half-life at 1 µM", "setting": "[3]", "result": "> 2", "unit": "h"},
      {"measurement": "hepatocyte CLint at 1 µM", "setting": "[3]; read-out: CL int cells", "result": 1.49, "unit": "µL/min/1e6 cells"}
    ]}
  ]
}
